Assay results as given in ChEMBL document CHEMBL4699662, “Identification and structure-activity relationship studies of small molecule inhibitors of the human cathepsin D” (Bioorg Med Chem, 2021).

Tests used:
in vitro [1] = conditions: human, liver microsomes
in vitro [2] = conditions: mouse, liver microsomes

Row | microsomal CLint at 0.5 h, 1 µM (in vitro [1]) [µL/min/mg] | microsomal CLint at 0.5 h, 1 µM (in vitro [2]) [µL/min/mg] | SMILES
1 | 179 | 354 | COc1ccc(CC(=O)NC(=N)N[C@H](CC2CCCCC2)C(=O)Nc2cc(S(=O)(=O)NC3CC3)ccc2C)cc1OC
2 | 221 | 227 | CCN(CC)S(=O)(=O)c1ccc(C)c(NC(=O)[C@@H](CC2CCCCC2)NC(=N)NC(=O)Cc2ccc(OC)c(OC)c2)c1
3 | 225 | 210 | COc1ccc(CC(=O)NC(=N)N[C@@H](C(=O)Nc2cc(S(N)(=O)=O)ccc2C)C2CCCCC2)cc1OC
4 | 174 | 179 | COc1ccc(CC(=O)NC(=N)N[C@H](C(=O)Nc2cc(S(N)(=O)=O)ccc2C)C2CCCC2)cc1OC
5 | 40 | 100 | COc1ccc(CC(=O)NC(=N)N[C@@H](C(=O)Nc2cc(S(N)(=O)=O)ccc2C)C2CC2)cc1OC
6 | 287 | 326 | CNS(=O)(=O)c1ccc(C)c(NC(=O)[C@@H](CC2CCCCC2)NC(=N)NC(=O)Cc2ccc(F)c(OC)c2)c1
7 | 169 | 234 | COc1ccc(CCC(=O)NC(=N)N[C@H](CC2CCCCC2)C(=O)Nc2cc(S(=O)(=O)N(C)C)ccc2C)cc1OC
8 | 277 | 240 | COc1ccc(CC(=O)NC(=N)N[C@H](CC2CCCCC2)C(=O)Nc2cc(S(=O)(=O)NC(C)C)ccc2C)cc1OC
9 | 204 | 226 | COc1ccc(CC(=O)NC(=N)N[C@H](CC2CCCCC2)C(=O)Nc2cc(S(=O)(=O)N(C)C)ccc2C)cc1OC
10 | 212 | 237 | COc1ccc(CC(=O)NC(=N)N[C@H](CC2CCCCC2)C(=O)Nc2cc(S(=O)(=O)N3CCOCC3)ccc2C)cc1OC
11 | 171 | 161 | COc1ccc(CC(=O)NC(=N)N[C@H](CC2CCCCC2)C(=O)Nc2cc(S(N)(=O)=O)ccc2C)cc1OC
12 | 271 | 212 | COc1ccc(CC(=O)NC(=N)N[C@H](CC2CCCCC2)C(=O)Nc2cc(S(=O)(=O)N3CCN(C)CC3)ccc2C)cc1OC
13 | 295 | 273 | CNS(=O)(=O)c1ccc(C)c(NC(=O)[C@@H](CC2CCCCC2)NC(=N)NC(=O)Cc2ccc(OC)c(Cl)c2)c1
14 | 176 | 180 | CNS(=O)(=O)c1ccc(C)c(NC(=O)[C@H](CC2CCCCC2)NC(=N)NC(=O)Cc2ccc(OC)c(OC)c2)c1
15 | 108 | 229 | COc1ccc(CC(=O)NC(=N)N[C@H](CC2CC2)C(=O)Nc2cc(S(N)(=O)=O)ccc2C)cc1OC
16 | 177 | 177 | CNS(=O)(=O)c1ccc(C)c(NC(=O)[C@@H](CC2CCCCC2)NC(=N)NC(=O)Cc2ccc(OC)c(OC)c2)c1
17 | 259 | 259 | COc1ccc(CC(=O)NC(=N)N[C@H](CC2CCCCC2)C(=O)Nc2cc(S(=O)(=O)N(C(C)C)C(C)C)ccc2C)cc1OC

Further lines, the compound ahead of its results:

Row | SMILES | microsomal CLint at 0.5 h, 1 µM (in vitro [1]) [µL/min/mg] | microsomal CLint at 0.5 h, 1 µM (in vitro [2]) [µL/min/mg]
18 | CNS(=O)(=O)c1ccc(C)c(NC(=O)[C@@H](CC2CCCCC2)NC(=N)NC(=O)Cc2ccc(S(C)(=O)=O)cc2)c1 | 241 | 208
19 | Cc1ccc(S(=O)(=O)N(C)C)cc1NC(=O)[C@@H](CC1CCCCC1)NC(=N)NC(=O)c1ccc2c(c1)OCCO2 | 253 | 272
20 | Cc1ccc(S(=O)(=O)N(C)C)cc1NC(=O)[C@@H](CC1CCCCC1)NC(=N)NC(=O)C1CCCc2ccccc21 (some centres not stated) | 237 | 259
21 | CNS(=O)(=O)c1ccc(C)c(NC(=O)[C@@H](CC2CCCCC2)NC(=N)NC(=O)Cc2cc(C(F)(F)F)cc(C(F)(F)F)c2)c1 | 175 | 187
22 | COc1ccc(CC(=O)NC(=N)N[C@H](CCSC)C(=O)Nc2cc(S(N)(=O)=O)ccc2C)cc1OC | 262 | 297
23 | COc1ccc(CC(=O)NC(=N)N[C@H](Cc2ccccc2)C(=O)Nc2cc(S(N)(=O)=O)ccc2C)cc1OC | 191 | 193
24 | Cc1ccc(S(=O)(=O)N(C)C)cc1NC(=O)[C@@H](CC1CCCCC1)NC(=N)NC(=O)Cc1ccc(Cl)c(Cl)c1 | 248 | 238
25 | CNS(=O)(=O)c1ccc(C)c(NC(=O)[C@@H](CC2CCCCC2)NC(=N)NC(=O)Cc2cc(Cl)cc(OC)c2)c1 | 212 | 212
26 | COc1ccc(CC(=O)NC(=N)N[C@H](CC2CCCCC2)C(=O)Nc2cc(S(=O)(=O)N(C)C)ccc2C)cc1F | 241 | 241
27 | CNS(=O)(=O)c1ccc(C)c(NC(=O)[C@@H](CC2CCCCC2)NC(=N)NC(=O)Cc2cc(Cl)cc(C(F)(F)F)c2)c1 | 239 | 220
28 | CC[C@@H](NC(=N)NC(=O)Cc1ccc(OC)c(OC)c1)C(=O)Nc1cc(S(N)(=O)=O)ccc1C | 55.1 | 118
29 | Cc1ccc(S(=O)(=O)N(C)C)cc1NC(=O)[C@@H](CC1CCCCC1)NC(=N)NC(=O)Cc1ccc2ccccc2c1 | 169 | 200
30 | COC[C@@H](NC(=N)NC(=O)Cc1ccc(OC)c(OC)c1)C(=O)Nc1cc(S(N)(=O)=O)ccc1C | 26.9 | 47.2
31 | COCC[C@@H](NC(=N)NC(=O)Cc1ccc(OC)c(OC)c1)C(=O)Nc1cc(S(N)(=O)=O)ccc1C | 43.1 | 57.3
32 | Cc1ccc(S(=O)(=O)N(C)C)cc1NC(=O)[C@@H](CC1CCCCC1)NC(=N)NC(=O)Cc1cccc(C(F)(F)F)c1 | 238 | 270
33 | NC(=O)N1c2ccccc2C=Cc2ccccc21 [CARBAMAZEPINE] | 6 | 7
34 | COc1ccc(CC(=O)NC(=N)N[C@H](CC2CCCCC2)C(=O)Nc2cc(S(=O)(=O)NC3CCCCC3)ccc2C)cc1OC | 326 | 232
35 | COc1ccc(CC(=O)NC(=N)N[C@@H](C(=O)Nc2cc(S(N)(=O)=O)ccc2C)C(C)(C)C)cc1OC | 108 | 211
36 | CNS(=O)(=O)c1ccc(C)c(NC(=O)[C@@H](CC2CCCCC2)NC(=N)NC(=O)Cc2ccc(OC)c(C(F)(F)F)c2)c1 | 188 | 215
37 | Cc1ccc(S(=O)(=O)N(C)C)cc1NC(=O)[C@@H](CC1CCCCC1)NC(=N)NC(=O)Cc1ccccc1C(F)(F)F | 208 | 244

Row | SMILES | microsomal CLint at 0.5 h, 1 µM (in vitro [1]) [µL/min/mg] | microsomal CLint at 0.5 h, 1 µM (in vitro [2]) [µL/min/mg]
38 | COc1ccc(CC(=O)NC(=N)N[C@H](C)C(=O)Nc2cc(S(N)(=O)=O)ccc2C)cc1OC | 27.8 | 50.6
39 | COc1ccc(CC(=O)NC(=N)N[C@H](Cn2cc(-c3ccccc3)nn2)C(=O)Nc2cc(S(N)(=O)=O)ccc2C)cc1OC | 340 | 367
40 | Cc1ccc(S(=O)(=O)N(C)C)cc1NC(=O)[C@@H](CC1CCCCC1)NC(=N)NC(=O)Cc1cc(C(F)(F)F)cc(C(F)(F)F)c1 | 246 | 258
41 | COc1ccc(CC(=O)NC(=N)N[C@@H](C(=O)Nc2cc(S(N)(=O)=O)ccc2C)C2=CCC=CC2)cc1OC | 138 | 178
42 | COc1ccc(CC(=O)NC(=N)N[C@H](Cc2cc3ccccc3s2)C(=O)Nc2cc(S(N)(=O)=O)ccc2C)cc1OC | 251 | 239
43 | COc1ccc(CC(=O)NC(=N)N[C@H](Cc2cccs2)C(=O)Nc2cc(S(N)(=O)=O)ccc2C)cc1OC | 264 | 260
44 | CNS(=O)(=O)c1ccc(C)c(NC(=O)[C@@H](C)NC(=N)NC(=O)Cc2ccc(OC)c(OC)c2)c1 | 134 | 220
45 | COc1ccc(CC(=O)NC(=N)N[C@H](CN2CCOCC2)C(=O)Nc2cc(S(N)(=O)=O)ccc2C)cc1OC | 31.8 | 49.1
46 | COc1ccc(CC(=O)NC(=N)N[C@@H](C(=O)Nc2cc(S(N)(=O)=O)ccc2C)C(C)C)cc1OC | 64.3 | 174
47 | COc1ccc(CC(=O)NC(=N)N[C@H](Cc2ccccc2F)C(=O)Nc2cc(S(N)(=O)=O)ccc2C)cc1OC | 171 | 149
48 | CNS(=O)(=O)c1ccc(C)c(NC(=O)[C@H](NC(=N)NC(=O)Cc2ccc(OC)c(OC)c2)c2ccccc2)c1 | 281 | 270
49 | COc1ccc(CC(=O)NC(=N)N[C@H](CO)C(=O)Nc2cc(S(N)(=O)=O)ccc2C)cc1OC | 22.5 | 15.5
50 | CNS(=O)(=O)c1ccc(C)c(NC(=O)[C@@H](CC2CCCCC2)NC(=N)NC(=O)Cc2ccc(Cl)c(Cl)c2)c1 | 336 | 176
51 | CNS(=O)(=O)c1ccc(C)c(NC(=O)[C@@H](Cc2ccccc2)NC(=N)NC(=O)Cc2ccc(OC)c(OC)c2)c1 | 131 | 149
52 | COc1ccc(CC(=O)NC(=N)N[C@H](CC(C)C)C(=O)Nc2cc(S(N)(=O)=O)ccc2C)cc1OC | 160 | 102
53 | CNS(=O)(=O)c1ccc(C)c(NC(=O)[C@@H](CC(C)C)NC(=N)NC(=O)Cc2ccc(OC)c(OC)c2)c1 | 239 | 188
54 | Cc1ccc(S(=O)(=O)N(C)C)cc1NC(=O)[C@@H](CC1CCCCC1)NC(=N)NC(=O)Cc1ccc(C(F)(F)F)cc1 | 291 | 282
55 | COc1ccc(CC(=O)NC(=N)NCC(=O)Nc2cc(S(N)(=O)=O)ccc2C)cc1OC | 18 | 20
56 | CNS(=O)(=O)c1ccc(C)c(NC(=O)[C@H](NC(=N)NC(=O)Cc2ccc(OC)c(OC)c2)C2CCCCC2)c1 | 211 | 173
